From patent US20170342110A1, “GLYCOPEPTIDES AND USES THEREOF” (JAWAHARLAL NEHRU CENTRE FOR ADVANCED SCIENTIFIC RESEARCH …, priority 2014, published 2017)
Values after ≈ are worked out from the molar mass of the structure shown. Read-outs that look alike come from different tables or passages of the source.

How the values were obtained:
[1] = test system: Methicillin-resistant S. aureus (ATCC 33591); assay: Minimum inhibitory concentration, micro-dilution broth, MRSA; assay type: cell-based; settings: Staphylococcus aureus, read-out: Minimum Inhibitory Concentration MRSA
Description: (§1) All test compounds were assayed in a micro-dilution broth format. Stock solutions were made by serially diluting the compounds using autoclaved millipore water or broth media. The antibacterial activity of the compounds was determined againstmethicillin-resistant S. aureus (MRSA), vancomycin-intermediate-resistant S. aureus (VISA), vancomycin-sensitive E. faecium (VSE), vancomycin-resistant E. faecalis and vancomycin-resistant E. faecium (VRE). Bacteria, to be tested, were grown for about 10 h in the suitable media, MSSA, MRSA and VISA were grown in […] (about 1 g of beef extract, about 2 g of yeast extract, about 5 g of peptone and about 5 g of NaCl in about 1000 mL of sterile distilled water (pH-7)). For solid media, about 5% agar was used along with above mentioned composition. VSE and VRE were cultured in Brain Heart Infusion broth (Himedia). The bacterial samples were freeze dried and stored at −80° C. About 5 μL of these stocks were added to about 3 mL of the nutrient broth or Brain Heart Infusion broth and the culture was grown for about 6 h at about 37° C. prior to the experiments. This 6 h grown culture gives about 10^9 cfu/mL and this was determined by spread plating method. The 6 h grown culture was diluted to give effective cell concentration of about 10^5 cfu/mL, which was then used for determining MIC. Compounds were serially diluted, in sterile water (2-fold dilution is employed) in a way that the working concentration was about 10 μM for MRSA, and VSE while for VRE and VISA it was about 100 μM. About 50 μL of these serial dilutions were added to the wells of 96 well plate followed by the addition of about 150 μL of bacterial solution. The plates were then incubated at about 37° C., 150 rpm in the incubator and O.D at 620 nm was recorded at an interval of about 24 h using TECAN (Infinite series, M200 pro) Plate Reader. Each concentration had triplicate values and the whole experiment was done at least twice and the MIC value was determined by taking the average of triplicate O. D. values for each concentration and plotting it against concentration. The data was then subjected to sigmoidal fitting.

[2] = test system: Vancomycin intermediate resistant S. aureus; assay: Minimum inhibitory concentration, micro-dilution broth, VISA; assay type: cell-based; settings: Staphylococcus aureus, read-out: Minimum Inhibitory Concentration VISA
Description: as §1

[3] = test system: Vancomycin-resistant E. faecalis (VanA, ATCC 51575); assay: Minimum inhibitory concentration, micro-dilution broth, VREs; assay type: cell-based; settings: Enterococcus faecalis, read-out: Minimum Inhibitory Concentration VREs
Description: as §1

[4] = test system: methicillin-resistant vancomycin intermediate S. aureus (MR-VISA); assay: Mouse neutropenic thigh infection model against MR-VISA; assay type: in vivo; settings: neutropenic female CD-1 mice, 12 mg/kg intravenously, 24 h post first treatment
Description: In-vivo activity against methicillin-resistant vancomycin intermediate S. aureus (MR-VISA):
Mouse Neutropenic Thigh Infection Model:
About six-week-old, female CD-1 mice (weight, ˜19-24 g) were used for the experiments. The mice were rendered neutropenic (˜100 neutrophils/ml) by injecting two doses of cyclophosphamide intraperitoneally 4 days (150 mg/kg) and 1 day (100 mg/kg) before the infection experiment. 50 μL of […] concentration of the bacterial inoculum (MR-VISA) was injected into the thigh. One hour after inoculation, animals were treated intravenously with saline, vancomycin, linezolid and compound 14 at 12 mg/kg body weight. At 24 h post first treatment, cohorts of animals were euthanized (using ether) and the thighs were collected aseptically. […] The dilutions of the homogenate were plated onto agar plates, which were incubated overnight at 37° C. The bacterial titer was expressed as log10 CFU/g of thigh weight.

[5] = test system: Vancomycin-resistant E. faecium (ATCC 51559); assay: Minimum inhibitory concentration, micro-dilution broth, VREm; assay type: cell-based; settings: for MIC: Enterococcus faecium, read-out: Minimum Inhibitory Concentration VREm
Description: as §1

[6] = MRSA ATCC 33591, O.D. 620 nm at 24 h
[7] = ATCC51575, E. faecalis ATCC 51575, O.D. 620 nm at 24 h
[8] = ATCC51559, E. faecium ATCC 51559, O.D. 620 nm at 24 h

SMILES	MIC [1, 6] [µM]	MIC ([2]; O.D. 620 nm at 24 h) [µM]	MIC [3, 7] [µM]	reduction in bacterial count from the vehicle treated mice [4] [log10 CFU/g]	MIC [5, 8] [µM]	fold more active than vancomycin against VREm/VRE (MIC) ([5]; relative to vancomycin) [fold]	MIC ([1]; 24 h) [µM]	MIC ([2]; 24 h) [µM]	MIC ([3]; ATCC51575, 24 h) [µM]	in-vivo antibacterial activity compared to vehicle treated mice (saline), in words [4]	MIC ([5]; ATCC51559, 24 h) [µM]
CCCCCCCC[n+]1ccc(CNC2(C)CC(OC3C(Oc4c5cc6cc4Oc4ccc(cc4Cl)C(O)C4NC(=O)[C@@H](NC(=O)[C@@H]6NC(=O)C(CC(N)=O)NC(=O)C(NC(=O)C(CC(C)C)NC)C(O)c6ccc(c(Cl)c6)O5)c5ccc(O)c(c5)-c5c(O)cc(O)cc5[C@@H](C(=O)NCCCNC(=O)C(O)C(O)C(O[C@H]5OC(CO)C(O)C(O)C5O)C(O)CO)NC4=O)OC(CO)C(O)C3O)OC(C)C2O)cc1 (some centres unmarked) [Compound 14]	0.09	0.1	1.36	~6.0	0.09	> 7500					
CCCCCCCCCC[n+]1ccc(CNC2(C)CC(OC3C(Oc4c5cc6cc4Oc4ccc(cc4Cl)C(O)C4NC(=O)[C@@H](NC(=O)[C@@H]6NC(=O)C(CC(N)=O)NC(=O)C(NC(=O)C(CC(C)C)NC)C(O)c6ccc(c(Cl)c6)O5)c5ccc(O)c(c5)-c5c(O)cc(O)cc5[C@@H](C(=O)NCCCNC(=O)C(O)C(O)C(O[C@H]5OC(CO)C(O)C(O)C5O)C(O)CO)NC4=O)OC(CO)C(O)C3O)OC(C)C2O)cc1 (some centres unmarked) [Compound 15]	0.2	0.09	1.3		0.3						
CCCCCCCCCCCC[n+]1ccc(CNC2(C)CC(OC3C(Oc4c5cc6cc4Oc4ccc(cc4Cl)C(O)C4NC(=O)[C@@H](NC(=O)[C@@H]6NC(=O)C(CC(N)=O)NC(=O)C(NC(=O)C(CC(C)C)NC)C(O)c6ccc(c(Cl)c6)O5)c5ccc(O)c(c5)-c5c(O)cc(O)cc5[C@@H](C(=O)NCCCNC(=O)C(O)C(O)C(OC5OC(CO)C(O)C(O)C5O)C(O)CO)NC4=O)OC(CO)C(O)C3O)OC(C)C2O)cc1 (some centres unmarked) [Compound 16]	0.28	0.31	1.11		0.37						
CNC(CC(C)C)C(=O)NC1C(=O)N[C@H](CC(N)=O)C(=O)N[C@H]2C(=O)N[C@H]3C(=O)NC(C(=O)N[C@@H](C(=O)O)c4cc(O)cc(O)c4-c4cc3ccc4O)C(O)c3ccc(c(Cl)c3)Oc3cc2cc(c3OC2OC(CO)C(O)C(O)C2OC2CC(C)(N)C(O)C(C)O2)Oc2ccc(cc2Cl)C1O (some centres unmarked) [Vancomycin, reference compound]							0.78 (≈ 1.13 µg/mL)	8 to 12 (≈ 11.6 to 17.4 µg/mL)	250 (≈ 362 µg/mL)	minimal or no activity	750 (≈ 1090 µg/mL)
CC(=O)NC[C@H]1CN(c2ccc(N3CCOCC3)c(F)c2)C(=O)O1 [linezolid]										minimal or no activity	
